What was measured:
[1] = Ligand facilitated Fe(III) efflux from liposomes; assay type: biochemical; parameters: unit not given here; details: efflux rate k at 10 μM ligand concentration; ferrozine absorbance 562 nm, 120 min kinetic read
Procedure: Assay 1: Ligand Facilitated Fe(III) Efflux from Liposomes
Preparation of POPC (1 palmitoyl-2-oleoyl-sn-glycero-3 phosphocholine): Cholesterol Liposomes
A 1M buffer solution of MES and Tris was prepared by dissolving 121.14 grams of Tris base and 213.25 grams of MES hydrate in 500 mL of MilliQ water and adjusted to pH7.0 using an […] HCl solution before bringing the total volume of the solution to 1 L. A 500 mM solution of FeCl3 was prepared by dissolving 0.811 grams of anhydrous FeCl3 in 10 mL of a 0.1M H2SO4 aqueous solution. Inside buffer is prepared in a 50 mL falcon tube, which was added with 25 mL of MilliQ water, 1.61 g of sodium citrate, 1.5 mL of the above FeCl3 solution, and 2.5 mL of the 1M MES/Tris HCl buffer (pH=7.0), and finally additional MilliQ H2O to bring to a 50 mL final volume.
Lipid solution is prepared by dissolving 206.9 mg of POPC (1-palmitoyl-2-oleoyl-sn-glycero-3-phosphocholine) and 8.6 mg of cholesterol in 10 mL of ethanol.
The lipids solution and the inside buffer solution are independently loaded into 10 mL luer lock syringes for loading into a virgin cartridge on a Precision Nanosystems NanoAssembler to prepare unilamaller liposomes with the following parameters: 7.5 mL total volume, 1.5:1 mixing ratio of inside buffer:lipids solution, 8 mL/min flow rate, ambient temperature, 0.35 mL start waste, and 0.05 mL of end waste. 7.5 mL of liposomes is harvested for purification on a 6-inch long, 1-inch diameter Sephadex G-50 column wetted in 600 mM sodium ascorbate and 50 mM MES/Tris HCl pH 7.0 buffer. This buffer also serves as the column running buffer. The crude liposome solution is carefully loaded with minimal volume of running buffer above the top of the Sphadex, allowed to enter the matrix, and the column is run with the continued addition of running buffer. The eluting liposomes, observed as a milky and turbid solution, are collected until free iron begins to elute (observed as a deep purple color) and the fractions are pooled for phosphorus quantitation.
Determination of Phosphorus Content:
Phosphorus content of eluted liposomes was determined by the process outlined below. 10 μL of liposome elution and a running buffer blank are added to a 5 mL glass vial containing 450 μL of a 8.9 M aqueous H2SO4 solution, the mixture is heated to 225° C. for 25 minutes in an aluminum heat block to hydrolyze POPC and cooled for 5 minutes. 200 μL of a 30% hydrogen peroxide aqueous solution is added to each vial and heated to 225° C. for 25 minutes. After cooling, the phosphorus content was determined using an Abcam Phosphate Assay kit, with buffer subtracted phosphorus levels determined against a standard curve of phosphate included in the kit. Liposomes were diluted to 1 mM phosphate in Running Buffer for use in assays after accounting for dilutions made during phospholipid digestion.
Determination of the Iron Transporting Rate Constant of the Ligands:
Determination of the rate at which a small molecule ligand liberates (transport) Ferric iron from liposomes is performed in clear bottom black 384-well plates on a Spectramax i3x set to read the absorbance at 562 nm in the kinetic mode every 60 seconds for 120 minutes. 1 μL of serially diluted DMSO stock solution of a small molecule ligand is added to wells in triplicate to give the final concentrations of 40, 20, 10, 5, 2.5, and 1.25 uM of the ligand at 80 μL final volume, followed by addition of 1 μL of 100 mM Ferrozine in water to give a final concentration of 1 mM ferrozine. 78 μL of liposomes diluted to 1 mM phosphorus in running buffer is added to wells as quickly as possible (using a digital repeater multichannel pipette) with the kinetic read initiated as rapidly as possible after addition of liposomes to all wells. Typically, eight compounds at six concentrations are tested in triplicate simultaneously. […]

[2] = test system: DMT1-deficient Caco-2 cells; test: shDMT1-Caco2 55Fe transport assay; assay type: cell-based; details: Caco-2
Source text: Assay 2: shDMT1-Caco2 ^55Fe Transport Assay to Assess Ligand Ability in Transporting Fe (III)
Cells: DMT1-deficient Caco-2 cells (alias: “shDMT1,” or “4A” cells) were from Grillo et al. Science, 2017, and were cryopreserved in liquid nitrogen prior to use.
Reagents and supplies: ^55FeCl3 was obtained from PerkinElmer (Boston, MA). Iron(III) chloride (FeCl3) hexahydrate was obtained from Sigma. Dulbecco's Modified Eagle Medium (DMEM), fetal bovine serum (FBS), L-glutamine, MEM nonessential amino acids, penicillin-streptomycin, G418, formic acid, methanol, high-purity water, ammonium formate, dimethyl sulfoxide (DMSO) were purchased from Fisher Scientific. Propranolol, atenolol and carbutamide were obtained from Sigma-Aldrich Chemical Company (St Louis, MO). Scintillation cocktail was obtained from Research Product International Co. (Mount Prospect, IL). Stericup filter system (PES membrane, 0.22 um pore size) was purchased from Fisher Scientific. Corning item #3378 24-well transwell insert plates.
Test articles: known compounds hinokitiol and deferiprone were purchased from Sigma. They are tested side by side with the small molecule ligands disclosed in this application. DMSO stocks (10 mM, which is 1,000× of the 10 μM dose level) of hinokitiol or test articles were prepared. A stock solution of 25 mM deferiprone in DMSO was prepared. The DMSO stock solutions were stored at −20° C. or below when not in use.
The growth medium was prepared according to the following table
Apical media (serum free DMEM, 10 mM MES, pH 6.5) was prepared. Apical master mix media was prepared fresh with the addition of 200 nM ^55Fe before each experiment. For the negative control propranolol and atenolol wells, 200 nM of non-radioactive iron was used.
The basolateral media was serum-free DMEM, 10 mM HEPES, 2% bovine serum albumin (BSA), pH 7.4.
For each experiment, cells were seeded into the 24-well transwell plates (0.5 mL of 50,000 cells/mL) with growth media. The basolateral companion plate was loaded with 1 mL of growth media. After 12-24 hr, both the apical and basolateral chamber were replaced with growth media. The apical media was changed 3× per week for 21-28 days, including a media change exactly 48 hr before the assay date.
On the assay day, the TEER values were measured and the average TEER value was obtained. Individual wells with TEER value >35% lower than the average of all wells were excluded. For the qualified wells, the apical layer (twice) and basolaterial (once) chambers were washed with PBS. The basolateral companion plate was then filled with 1 mL of basolateral media. Via addition down the side-wall of the apical well, 300 μL per well of the apical assay master mix, with the indicated dose level of test article, was added. Each dose was tested in triplicate. The plates were incubated (5% CO2 and 90% humidity at 37° C.) for the indicated timepoints. At each indicated timepoint, the basolateral supernatant was gently mixed via pipetting, and 200 μL of the basolateral supernatant was transferred to scintillation vials. To each scintillation counting vial, 5 mL of scintillation cocktail fluid was added. For each scintillation vial, the radioactivity (CPM) was determined with liquid scintillation counter LS6500. The counting time per vial was 5 min.
All raw CPM values are divided by the average value of blank DMSO solution to give a fold of change above the DMSO value. The mean and standard deviation of each compound at each concentration level and at each time point measured was calculated to give the fold change (fc) value. For rank order compounds, the fc value of a ligand at 4 h time point is further divided by the fold change (fc) value of hinokitiol (a positive control compound) at an equimolar concentration to arrive at the FC (normalized fold of change) value. Data reported in Tables 1 and 2 is 4 hr time point FC=fc-ligand @ 3 uM/fc-hino @ 3 μM, and FC hino=1.

SMILES	Caco2 shDMT1 transport FC @ 3 μM, 4 h [2]	Liposome Fe transport kefflux at 10 μM [1]
CCc1cccc(Cl)c(=O)c1O	0.01-0.5	7.5-10
CC(C)Oc1ccc(O)c(=O)cc1	0.01-0.5	7.5-10
Cc1ccc(O)c(=O)c(C(F)(F)F)c1	0.01-0.5	10-25
O=c1ccccc(OC2CC(F)(F)C2)c1O	1-5	7.5-10
O=c1ccc(OC2CC2)ccc1O	0.5-1	10-25
CC(C)c1cccc(F)c(=O)c1O [drawing 179]	0.01-0.5	10-25
O=c1ccccc(OC2CC3(CC3)C2)c1O [drawing 259]	1-5	10-25
Cc1cccc(F)c(=O)c1O [drawing 207]	0.01-0.5	10-25
O=c1c(O)cc(C2CC2)ccc1F [drawing 209]	0.01-0.5	7.5-10
O=c1ccccc(C2CCCO2)c1O (centres unmarked)	1-5	10-25
CC(=O)N1CCC(c2ccc(O)c(=O)cc2)CC1	0.01-0.5	5-7.5
Cc1ccc(C(F)(F)F)c(=O)c(O)c1	0.01-0.5	7.5-10
O=c1ccc(OC2COC2)ccc1O [drawing 187]	0.01-0.5	5-7.5
O=c1ccccc(OC2CCC2)c1O [drawing 233]	0.01-0.5	7.5-10
Cc1ccc(C(C)C)cc(O)c1=O	0.5-1	0.1-5
Cc1cc(C(C)C)ccc(O)c1=O [drawing 203]	1-5	10-25
O=c1c(O)ccc(OC2CCC2)cc1F	0.01-0.5	10-25
CCc1ccc(C)c(=O)c(O)c1	0.5-1	5-7.5
CCOc1cccc(=O)c(O)c1	0.5-1	5-7.5
COc1cccc(=O)c(O)c1	0.01-0.5	5-7.5
Cc1cccc(C(C)C)c(O)c1=O [drawing 205]	0.5-1	5-7.5

Second part, led by results:

Caco2 shDMT1 transport FC @ 3 μM, 4 h [2]	SMILES	Liposome Fe transport kefflux at 10 μM [1]
0.01-0.5	O=c1c(O)ccccc1F	0.1-5
0.01-0.5	CC(C)c1cccc(=O)c(O)c1F [drawing 177]	10-25
1-5	CCc1cc(F)ccc(=O)c1O	7.5-10
0.01-0.5	CCOc1ccc(O)c(=O)cc1	7.5-10
0.01-0.5	Cc1cccc(Cl)c(=O)c1O	5-7.5
0.01-0.5	CCc1cccc(C)c(=O)c1O [drawing 202]	5-7.5
0.01-0.5	O=c1cccc(C2CCCO2)cc1O (centres unmarked)	7.5-10
0.5-1	CC(C)Oc1cccc(=O)c(O)c1	5-7.5
0.01-0.5	CCOC(=O)N1CCC(c2ccc(O)c(=O)cc2)CC1	5-7.5
0.1-5	O=c1ccccc([C@@H]2CCCO2)c1O	7.5-10
1-5	Cc1cccc(C)c(=O)c1O	10-25
0.01-0.5	O=c1ccc(C2CC3CC3C2)ccc1O (centres unmarked)	5-7.5
0.01-0.5	CC(C)c1ccc(F)c(=O)c(O)c1 [drawing 176]	10-25
0.01-0.5	O=c1ccccc(C2CCOC2)c1O (centres unmarked)	<0.1
0.01-0.5	Cc1ccc(O)c(=O)c(F)c1	0.1-5
0.1-5	O=c1ccccc([C@H]2CCCO2)c1O	7.5-10
0.01-0.5	O=c1cccc(O[C@@H]2CCOC2)cc1O (stereo in doubt)	0.1-5
0.01-0.5	O=c1ccccc(OC2COC2)c1O	0.1-5
1-5	Cc1ccc(O)c(=O)c(C)c1	5-7.5
